Test results as given in ChEMBL document CHEMBL1201862, “PubChem BioAssay data set” (2004).
Calls of active or inactive are those of the source.

Legend:
[1] = biological target: Multidrug resistance protein CDR2 (Candida albicans (strain SC5314 / ATCC MYA-2876) (Yeast), UniProt P78595); assay: CaCDR2 efflux pump inhibitors in yeast, dose response, S. cerevisiae AD1-8u, singleplex, Cherry Pick1 hits (AID 588604); type: functional
Protein RecA = biological target: T1, Protein RecA (Mycobacterium tuberculosis, UniProt P9WHJ3); assay: Fluorescence Cell-Free Homogeneous Dose Retest to Identify Inhibitors of RecA-Intein Splicing Activity. [Related pubchem assays (depositor defined):AID2097, AID2223, AID489010, AID492950]; type: functional
T1 sequence (P9WHJ3 whole entry): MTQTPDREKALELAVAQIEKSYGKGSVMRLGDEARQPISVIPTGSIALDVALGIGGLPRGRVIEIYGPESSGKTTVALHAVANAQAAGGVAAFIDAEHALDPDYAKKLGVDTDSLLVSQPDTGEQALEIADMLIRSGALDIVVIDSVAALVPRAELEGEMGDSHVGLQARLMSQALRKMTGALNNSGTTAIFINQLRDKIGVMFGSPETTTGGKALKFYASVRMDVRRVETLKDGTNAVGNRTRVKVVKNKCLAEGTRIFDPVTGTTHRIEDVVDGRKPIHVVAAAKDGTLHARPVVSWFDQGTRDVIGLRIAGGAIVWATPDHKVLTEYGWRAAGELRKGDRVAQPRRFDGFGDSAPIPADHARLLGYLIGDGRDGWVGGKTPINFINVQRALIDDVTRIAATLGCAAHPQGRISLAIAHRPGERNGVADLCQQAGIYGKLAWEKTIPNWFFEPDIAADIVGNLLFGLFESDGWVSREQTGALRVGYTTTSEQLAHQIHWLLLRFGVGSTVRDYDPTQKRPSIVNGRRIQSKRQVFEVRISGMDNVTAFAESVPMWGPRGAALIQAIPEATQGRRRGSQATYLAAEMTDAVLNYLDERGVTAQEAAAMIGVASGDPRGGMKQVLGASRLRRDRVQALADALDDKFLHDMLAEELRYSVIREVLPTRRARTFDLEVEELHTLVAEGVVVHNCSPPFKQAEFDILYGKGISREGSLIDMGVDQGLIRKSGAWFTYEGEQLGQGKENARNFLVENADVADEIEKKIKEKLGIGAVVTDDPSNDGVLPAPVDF

[2] = biological target: Neurotensin receptor type 1 (Homo sapiens, UniProt P30989); type: functional;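 further: Image-based confirmatory dose-response assay measuring agonist activity at NTR1; NTR1-expressing U2OS osteosarcoma cells imaged for beta-arrestin GFP spot formation; agonist potency where compounds increase beta-arrestin recruitment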
[3] = Luminescence Cell-Based Dose Retest to Confirm Inhibitors of Cancer Stem Cells. [Related pubchem assays (depositor defined):AID2717, AID2721]; type: functional; settings: Homo sapiens
[4] = biological target: T2, Replicative DNA helicase DnaB (Mycobacterium tuberculosis, UniProt P9WMR3); assay: DnaB intein splicing inhibitors, dose response, biochemical, cell-free fluorescence (AID 449749); type: functional
T2 sequence (P9WMR3 whole entry): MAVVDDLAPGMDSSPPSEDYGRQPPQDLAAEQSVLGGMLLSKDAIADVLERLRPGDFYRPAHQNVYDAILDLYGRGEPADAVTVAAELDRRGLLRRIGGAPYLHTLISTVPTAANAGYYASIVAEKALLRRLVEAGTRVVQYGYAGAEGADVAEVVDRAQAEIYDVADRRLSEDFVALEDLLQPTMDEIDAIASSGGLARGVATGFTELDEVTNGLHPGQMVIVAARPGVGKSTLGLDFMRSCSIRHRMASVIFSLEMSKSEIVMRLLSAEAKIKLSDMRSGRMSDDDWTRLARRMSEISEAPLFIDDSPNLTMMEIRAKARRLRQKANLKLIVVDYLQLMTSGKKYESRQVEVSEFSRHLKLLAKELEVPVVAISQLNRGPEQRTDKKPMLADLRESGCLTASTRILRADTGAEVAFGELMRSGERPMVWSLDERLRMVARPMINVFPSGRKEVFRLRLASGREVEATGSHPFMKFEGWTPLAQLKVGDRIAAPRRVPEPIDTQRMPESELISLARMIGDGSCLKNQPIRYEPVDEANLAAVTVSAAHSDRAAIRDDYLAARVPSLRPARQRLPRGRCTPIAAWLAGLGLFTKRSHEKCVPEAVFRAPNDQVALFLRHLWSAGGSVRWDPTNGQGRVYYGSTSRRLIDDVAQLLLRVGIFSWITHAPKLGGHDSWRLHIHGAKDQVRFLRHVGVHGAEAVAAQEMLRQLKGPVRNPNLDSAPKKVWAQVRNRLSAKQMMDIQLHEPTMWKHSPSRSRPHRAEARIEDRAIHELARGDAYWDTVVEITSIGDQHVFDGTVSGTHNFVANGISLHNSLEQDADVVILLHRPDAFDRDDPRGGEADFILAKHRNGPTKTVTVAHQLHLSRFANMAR

Nonstructural protein 1 = Nonstructural protein 1 (Influenza A virus, UniProt Q194T2); type: functional, Influenza A virus (A/California/07/2009(H1N1))
Sequence of Nonstructural protein 1 (Q194T2 whole entry): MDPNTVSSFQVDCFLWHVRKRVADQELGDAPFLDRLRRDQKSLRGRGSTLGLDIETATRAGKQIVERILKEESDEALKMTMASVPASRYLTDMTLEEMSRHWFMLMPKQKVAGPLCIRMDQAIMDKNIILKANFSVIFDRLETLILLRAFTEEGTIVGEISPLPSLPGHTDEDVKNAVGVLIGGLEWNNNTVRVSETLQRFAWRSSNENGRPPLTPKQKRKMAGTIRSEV

Sequence of Neurotensin receptor type 1 (P30989 whole entry): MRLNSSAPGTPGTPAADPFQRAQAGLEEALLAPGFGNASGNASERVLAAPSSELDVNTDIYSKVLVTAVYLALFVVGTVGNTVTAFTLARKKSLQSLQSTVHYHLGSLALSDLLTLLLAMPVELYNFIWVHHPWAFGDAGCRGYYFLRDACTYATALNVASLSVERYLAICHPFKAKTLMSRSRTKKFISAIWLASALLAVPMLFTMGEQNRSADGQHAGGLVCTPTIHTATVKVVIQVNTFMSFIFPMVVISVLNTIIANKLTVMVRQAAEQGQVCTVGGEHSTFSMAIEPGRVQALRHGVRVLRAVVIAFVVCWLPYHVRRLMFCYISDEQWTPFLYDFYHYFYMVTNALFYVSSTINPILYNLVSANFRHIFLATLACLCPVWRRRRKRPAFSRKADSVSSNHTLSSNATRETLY
Sequence of Multidrug resistance protein CDR2 (P78595 whole entry): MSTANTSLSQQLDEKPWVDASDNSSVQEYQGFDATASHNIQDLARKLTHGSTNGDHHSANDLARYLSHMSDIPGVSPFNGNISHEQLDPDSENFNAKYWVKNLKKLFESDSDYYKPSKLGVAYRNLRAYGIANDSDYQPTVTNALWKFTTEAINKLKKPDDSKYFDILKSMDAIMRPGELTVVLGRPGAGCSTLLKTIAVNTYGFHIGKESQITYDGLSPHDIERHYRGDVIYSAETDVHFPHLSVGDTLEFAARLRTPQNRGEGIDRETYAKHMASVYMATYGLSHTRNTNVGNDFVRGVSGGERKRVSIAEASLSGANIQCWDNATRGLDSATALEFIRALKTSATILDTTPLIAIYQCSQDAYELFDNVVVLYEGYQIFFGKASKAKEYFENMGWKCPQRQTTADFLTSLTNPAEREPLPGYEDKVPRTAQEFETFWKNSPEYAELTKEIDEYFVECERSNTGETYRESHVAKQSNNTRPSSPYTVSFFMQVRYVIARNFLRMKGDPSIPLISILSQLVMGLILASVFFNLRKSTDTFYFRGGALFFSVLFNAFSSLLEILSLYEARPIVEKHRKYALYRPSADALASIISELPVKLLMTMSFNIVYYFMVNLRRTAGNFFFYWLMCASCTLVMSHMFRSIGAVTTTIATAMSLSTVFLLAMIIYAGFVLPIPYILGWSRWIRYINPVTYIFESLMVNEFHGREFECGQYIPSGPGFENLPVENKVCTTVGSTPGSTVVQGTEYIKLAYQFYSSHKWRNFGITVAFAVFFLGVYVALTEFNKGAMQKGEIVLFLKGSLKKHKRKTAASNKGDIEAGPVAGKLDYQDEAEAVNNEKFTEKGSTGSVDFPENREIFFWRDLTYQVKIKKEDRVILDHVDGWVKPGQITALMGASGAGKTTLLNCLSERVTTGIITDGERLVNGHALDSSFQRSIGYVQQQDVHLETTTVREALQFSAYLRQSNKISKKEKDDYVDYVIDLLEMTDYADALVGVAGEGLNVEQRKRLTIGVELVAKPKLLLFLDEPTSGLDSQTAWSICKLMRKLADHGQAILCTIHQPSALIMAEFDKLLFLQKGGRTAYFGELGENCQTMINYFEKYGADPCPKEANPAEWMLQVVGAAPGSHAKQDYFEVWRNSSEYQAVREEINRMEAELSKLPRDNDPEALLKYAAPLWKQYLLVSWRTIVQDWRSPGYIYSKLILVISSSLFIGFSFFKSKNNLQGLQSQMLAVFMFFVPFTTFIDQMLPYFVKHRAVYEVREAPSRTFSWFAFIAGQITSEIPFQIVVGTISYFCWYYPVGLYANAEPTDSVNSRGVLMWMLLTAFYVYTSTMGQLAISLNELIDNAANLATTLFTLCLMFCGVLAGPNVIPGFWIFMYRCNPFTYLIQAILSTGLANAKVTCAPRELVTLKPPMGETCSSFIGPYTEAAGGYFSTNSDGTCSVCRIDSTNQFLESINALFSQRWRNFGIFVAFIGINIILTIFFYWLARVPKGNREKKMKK

CCCCCc1cc(=O)oc2c(C(CCN3CCCC(C)C3)c3ccc(N(C)C)cc3)c(OC)cc(OC)c12 (stereo unspecified)
active: EC50 [1] 25.4 µM | EC50 (Protein RecA) 8.08 µM | EC50 [2] 17.7 µM | AC50 [3] 5.3 µM | AC50 [4] 8.48 µM | IC50 (Nonstructural protein 1) 5.48 µM
